According to patent US12558428B2, “Heterobifunctional compounds and their use in treating disease” (Halda Therapeutics OpCo, Inc., priority 2024, dated 2026):

Each compound was assayed on T-Rex 293 cells having increased expression of estrogen receptor alpha protein (assay: Cellular growth inhibition assay, T-Rex 293 cells, (+) doxycycline). Details: T-REx-293, 72 h, Table 7-A; T-Rex 293 cells with doxycycline (increased ERα expression); 72 hours; CellTiter-Glo; read-out: (+) Dox GI50.
Type: cell-based
In short: (§1)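 Growth of a doxycycline-inducible ERα T-Rex 293 clone, induced or not with 3 ng/mL doxycycline, was followed for 72 h with test compound in hormone-depleted medium. CellTiter-Glo luminescence gave GI50.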
With Cc1sc2c(c1C)C(c1ccc(N3CC(CN4CCC(CC5CN(c6ccc([C@@H]7c8ccc(O)cc8CC[C@@H]7c7ccccc7)cc6)C5)CC4)C3)cc1)=N[C@@H](C)c1nnc(C)n1-2 [III-133] the GI50 was under 50 nM.
Compound Cc1sc2c(c1C)C(c1ccc(N3CC(C(=O)N4CCC(CC5CN(c6ccc([C@@H]7c8ccc(O)cc8CC[C@@H]7c7ccccc7)cc6)C5)CC4)C3)cc1)=N[C@@H](C)c1nnc(C)n1-2 [III-134] has a GI50 of under 50 nM.
In the case of Cc1sc2c(c1C)C(c1ccc(N3CC(CC4CCN(C(=O)C5CN(c6ccc([C@@H]7c8ccc(O)cc8CC[C@@H]7c7ccccc7)cc6)C5)CC4)C3)cc1)=N[C@@H](C)c1nnc(C)n1-2 [III-135], the GI50 is reported as under 50 nM.
Compound Cc1sc2c(c1C)C(c1ccc(N3CC(CN4CCN(CC5CN(c6ccc([C@H]7c8ccc(O)cc8CC[C@H]7c7ccccc7)cc6)C5)CC4)C3)cc1)=N[C@H](C)c1nnc(C)n1-2 [III-136] has a GI50 of over 2500 nM.
For Cc1sc2c(c1C)C(c1ccc(CC(=O)N3CCC4(CCN(c5ccc([C@@H]6c7ccc(O)cc7CC[C@@H]6c6ccccc6)cc5)CC4)C3)cc1)=N[C@@H](C)c1nnc(C)n1-2 [III-137], the GI50 was 500 to 2500 nM.
Work on Cc1sc2c(c1C)C(c1ccc(N3CC(CC4CCN(c5ccc([C@@H]6c7ccc(O)cc7CC[C@@H]6c6ccccc6)cc5)CC4)C3)cc1)=N[C@@H](C)c1nnc(C)n1-2 [III-138] yielded a GI50 of 500 to 2500 nM.
Work on Cc1sc2c(c1C)C(c1ccc(N3CC(C(=O)N4CCC(c5ccc([C@@H]6c7ccc(O)cc7CC[C@@H]6c6ccccc6)cc5)CC4)C3)cc1)=N[C@@H](C)c1nnc(C)n1-2 [III-139] yielded a GI50 of 500 to 2500 nM.
Cc1sc2c(c1C)C(c1ccc(N3CCC(O)(CN4CCC(c5ccc([C@@H]6c7ccc(O)cc7CC[C@@H]6c6ccccc6)cc5)CC4)CC3)cc1)=N[C@@H](Cc1ncco1)c1nnc(C)n1-2 [III-140] gave a GI50 of 50 to 500 nM.
Cc1sc2c(c1C)C(c1ccc(C3CN(CC4CCN(c5ccc([C@@H]6c7ccc(O)cc7CC[C@@H]6c6ccccc6)cc5)CC4)C3)cc1)=N[C@@H](C)c1nnc(C)n1-2 [III-141] showed a GI50 of 50 to 500 nM.

The compounds below were run on MCF7 cells (ATCC #HTB-22) (assay: Cellular growth inhibition assay, MCF7 cells purchased from ATCC). Details: Homo sapiens, MCF7, 144 h, Table 8-A; MCF7 cells purchased from ATCC; six days; CellTiter-Glo; read-out: GI50.
Type: cell-based
In short: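 GI50 values come from a four-parameter fit of CellTiter-Glo 2.0 luminescence after six days of compound exposure at 37° C. Seeding density depended on the source: 225 cells/well for ECACC MCF7, 1,500 for ATCC. Medium was RPMI 1640 with 10% FBS and 0.2 U/ml insulin.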
Cc1sc2c(c1C)C(c1ccc(N3CC(CN4CCC(CC5CN(c6ccc([C@@H]7c8ccc(O)cc8CC[C@@H]7c7ccccc7)cc6)C5)CC4)C3)cc1)=N[C@@H](C)c1nnc(C)n1-2 [III-133] gave a GI50 of 50 to 500 nM.
Compound Cc1sc2c(c1C)C(c1ccc(N3CC(C(=O)N4CCC(CC5CN(c6ccc([C@@H]7c8ccc(O)cc8CC[C@@H]7c7ccccc7)cc6)C5)CC4)C3)cc1)=N[C@@H](C)c1nnc(C)n1-2 [III-134] has a GI50 of under 50 nM.
For Cc1sc2c(c1C)C(c1ccc(N3CC(CC4CCN(C(=O)C5CN(c6ccc([C@@H]7c8ccc(O)cc8CC[C@@H]7c7ccccc7)cc6)C5)CC4)C3)cc1)=N[C@@H](C)c1nnc(C)n1-2 [III-135], the GI50 was under 50 nM.
Cc1sc2c(c1C)C(c1ccc(N3CC(CN4CCN(CC5CN(c6ccc([C@H]7c8ccc(O)cc8CC[C@H]7c7ccccc7)cc6)C5)CC4)C3)cc1)=N[C@H](C)c1nnc(C)n1-2 [III-136] showed a GI50 of over 2500 nM.
Cc1sc2c(c1C)C(c1ccc(CC(=O)N3CCC4(CCN(c5ccc([C@@H]6c7ccc(O)cc7CC[C@@H]6c6ccccc6)cc5)CC4)C3)cc1)=N[C@@H](C)c1nnc(C)n1-2 [III-137] was tested, and the GI50 was 50 to 500 nM.
For Cc1sc2c(c1C)C(c1ccc(N3CC(CC4CCN(c5ccc([C@@H]6c7ccc(O)cc7CC[C@@H]6c6ccccc6)cc5)CC4)C3)cc1)=N[C@@H](C)c1nnc(C)n1-2 [III-138], the GI50 was 500 to 2500 nM.
Compound Cc1sc2c(c1C)C(c1ccc(N3CC(C(=O)N4CCC(c5ccc([C@@H]6c7ccc(O)cc7CC[C@@H]6c6ccccc6)cc5)CC4)C3)cc1)=N[C@@H](C)c1nnc(C)n1-2 [III-139] has a GI50 of 50 to 500 nM.
With Cc1sc2c(c1C)C(c1ccc(N3CCC(O)(CN4CCC(c5ccc([C@@H]6c7ccc(O)cc7CC[C@@H]6c6ccccc6)cc5)CC4)CC3)cc1)=N[C@@H](Cc1ncco1)c1nnc(C)n1-2 [III-140] the GI50 was under 50 nM.
Work on Cc1sc2c(c1C)C(c1ccc(C3CN(CC4CCN(c5ccc([C@@H]6c7ccc(O)cc7CC[C@@H]6c6ccccc6)cc5)CC4)C3)cc1)=N[C@@H](C)c1nnc(C)n1-2 [III-141] yielded a GI50 of 50 to 500 nM.

The compounds below were run on T-Rex 293 cells lacking increased expression of estrogen receptor alpha protein (assay: Cellular growth inhibition assay, T-Rex 293 cells, (−) doxycycline). Details: T-REx-293, 72 h, Table 7-A; T-Rex 293 cells without doxycycline (lacking increased ERα expression); 72 hours; CellTiter-Glo; read-out: (−) Dox GI50.
Type: cell-based
In short: as §1
For Cc1sc2c(c1C)C(c1ccc(N3CC(CN4CCC(CC5CN(c6ccc([C@@H]7c8ccc(O)cc8CC[C@@H]7c7ccccc7)cc6)C5)CC4)C3)cc1)=N[C@@H](C)c1nnc(C)n1-2 [III-133], the GI50 was 50 to 500 nM.
Cc1sc2c(c1C)C(c1ccc(N3CC(C(=O)N4CCC(CC5CN(c6ccc([C@@H]7c8ccc(O)cc8CC[C@@H]7c7ccccc7)cc6)C5)CC4)C3)cc1)=N[C@@H](C)c1nnc(C)n1-2 [III-134] showed a GI50 of 50 to 500 nM.
With Cc1sc2c(c1C)C(c1ccc(N3CC(CC4CCN(C(=O)C5CN(c6ccc([C@@H]7c8ccc(O)cc8CC[C@@H]7c7ccccc7)cc6)C5)CC4)C3)cc1)=N[C@@H](C)c1nnc(C)n1-2 [III-135] the GI50 was 500 to 2500 nM.
Cc1sc2c(c1C)C(c1ccc(N3CC(CN4CCN(CC5CN(c6ccc([C@H]7c8ccc(O)cc8CC[C@H]7c7ccccc7)cc6)C5)CC4)C3)cc1)=N[C@H](C)c1nnc(C)n1-2 [III-136] gave a GI50 of over 2500 nM.
Cc1sc2c(c1C)C(c1ccc(CC(=O)N3CCC4(CCN(c5ccc([C@@H]6c7ccc(O)cc7CC[C@@H]6c6ccccc6)cc5)CC4)C3)cc1)=N[C@@H](C)c1nnc(C)n1-2 [III-137] showed a GI50 of 500 to 2500 nM.
Work on Cc1sc2c(c1C)C(c1ccc(N3CC(CC4CCN(c5ccc([C@@H]6c7ccc(O)cc7CC[C@@H]6c6ccccc6)cc5)CC4)C3)cc1)=N[C@@H](C)c1nnc(C)n1-2 [III-138] yielded a GI50 of over 2500 nM.
Compound Cc1sc2c(c1C)C(c1ccc(N3CC(C(=O)N4CCC(c5ccc([C@@H]6c7ccc(O)cc7CC[C@@H]6c6ccccc6)cc5)CC4)C3)cc1)=N[C@@H](C)c1nnc(C)n1-2 [III-139] has a GI50 of 500 to 2500 nM.
Cc1sc2c(c1C)C(c1ccc(N3CCC(O)(CN4CCC(c5ccc([C@@H]6c7ccc(O)cc7CC[C@@H]6c6ccccc6)cc5)CC4)CC3)cc1)=N[C@@H](Cc1ncco1)c1nnc(C)n1-2 [III-140] showed a GI50 of 500 to 2500 nM.
Cc1sc2c(c1C)C(c1ccc(C3CN(CC4CCN(c5ccc([C@@H]6c7ccc(O)cc7CC[C@@H]6c6ccccc6)cc5)CC4)C3)cc1)=N[C@@H](C)c1nnc(C)n1-2 [III-141] gave a GI50 of 500 to 2500 nM.
